Measured values reported in patent publication US20250171431A1, “HETEROCYCLIC INHIBITORS OF IGF-1R FOR TREATMENT OF DISEASE” (HORIZON THERAPEUTICS IRELAND DAC, priority 2023, published 2025).

Key:
IGF-1R [1] = target: T1, IGF-1R (Homo sapiens (Human), UniProt P08069); test: Example B-1: IGF-1R Assay (PC3 cells, IGF1 stimulation, AlphaLISA); type: cell-based; conditions: 200 ng/mL IGF1 stimulation, read-out: Biological Activity against IGF-1R IC50
Summary of the method: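 PC3 cells were serum-starved 2 h, treated with serially diluted compounds for 2 h, then stimulated with IGF1 (200 ng/mL final) for 30 min. Lysates were read by AlphaLISA; % inhibition was calculated relative to vehicle and EC80 controls, with IC50 values binned into ranges.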
Target sequence in this assay (P08069 31-1367): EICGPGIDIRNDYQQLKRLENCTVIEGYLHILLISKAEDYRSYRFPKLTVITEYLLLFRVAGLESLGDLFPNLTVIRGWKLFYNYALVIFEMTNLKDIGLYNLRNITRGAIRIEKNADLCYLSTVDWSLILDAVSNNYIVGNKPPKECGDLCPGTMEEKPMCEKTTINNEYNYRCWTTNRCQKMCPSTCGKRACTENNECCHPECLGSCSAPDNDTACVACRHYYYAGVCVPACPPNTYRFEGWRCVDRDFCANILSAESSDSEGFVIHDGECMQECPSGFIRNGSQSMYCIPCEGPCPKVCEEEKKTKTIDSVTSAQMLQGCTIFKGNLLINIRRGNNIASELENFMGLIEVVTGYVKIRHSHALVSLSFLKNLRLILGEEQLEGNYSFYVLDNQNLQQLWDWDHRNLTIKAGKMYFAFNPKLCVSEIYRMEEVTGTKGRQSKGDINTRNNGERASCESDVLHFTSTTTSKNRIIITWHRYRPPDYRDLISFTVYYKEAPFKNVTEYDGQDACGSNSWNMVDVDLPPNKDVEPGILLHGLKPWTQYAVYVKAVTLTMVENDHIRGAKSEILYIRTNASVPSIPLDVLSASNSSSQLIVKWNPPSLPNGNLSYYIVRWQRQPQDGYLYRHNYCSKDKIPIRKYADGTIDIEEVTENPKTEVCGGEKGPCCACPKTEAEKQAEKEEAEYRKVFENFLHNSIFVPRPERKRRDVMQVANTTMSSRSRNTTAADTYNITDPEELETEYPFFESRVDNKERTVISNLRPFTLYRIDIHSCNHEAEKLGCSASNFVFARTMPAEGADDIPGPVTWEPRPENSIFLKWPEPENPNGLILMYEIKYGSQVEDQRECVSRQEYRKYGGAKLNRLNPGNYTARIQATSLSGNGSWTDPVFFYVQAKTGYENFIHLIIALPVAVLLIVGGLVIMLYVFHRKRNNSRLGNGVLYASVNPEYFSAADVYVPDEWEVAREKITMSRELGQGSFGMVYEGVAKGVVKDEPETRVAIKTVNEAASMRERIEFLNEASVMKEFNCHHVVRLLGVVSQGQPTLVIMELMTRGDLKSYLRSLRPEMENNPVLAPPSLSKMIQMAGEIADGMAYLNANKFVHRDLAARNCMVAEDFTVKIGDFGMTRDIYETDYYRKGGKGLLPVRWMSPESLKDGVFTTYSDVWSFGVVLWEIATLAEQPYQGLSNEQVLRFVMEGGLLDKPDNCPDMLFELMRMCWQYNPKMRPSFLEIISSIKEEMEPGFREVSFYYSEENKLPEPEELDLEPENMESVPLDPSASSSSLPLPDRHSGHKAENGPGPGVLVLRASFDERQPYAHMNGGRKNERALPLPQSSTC

IGF-1R [2] = target: T1, IGF-1R; test: Example B-2: IGF-1R Assay (PathHunter cell lines, EC80 agonist challenge); type: cell-based; conditions: read-out: IC50 (Biological Activity against IGF-1R)
Experimental: PathHunter cell lines were expanded from freezer stocks according to standard procedures. Cells were seeded in a total volume of 20 μL into white walled, 384-well microplates and incubated for the appropriate time prior to testing.
Cells are pre-incubated with compound followed by EC80 agonist challenge as follows: • 1. Intermediate dilution of sample stocks was performed to generate 5× sample in assay buffer. • 2. 5 μL of 5× sample was added to cells and incubated at 37° C. for 60 minutes. Vehicle concentration was 1%. • 3. 5 μL of 6×EC80 agonist in assay buffer was added to the cells and incubated at room temperature for 3 hours.
Assay signal was generated through a single addition of 12.5 or 15 μL (50% v/v) of PathHunter Detection reagent cocktail for agonist and antagonist assays respectively, followed by a one hour incubation at room temperature. Microplates were read following signal generation with a PerkinElmer Envision™ instrument for chemilumine-scent signal detection.
Compound activity was analyzed using CBIS data analysis suite (ChemInnovation, CA). Percentage inhibition was calculated using the following formula: % Inhibition=100%×(1−(mean RLU of test sample−mean RLU of vehicle control)/(mean RLU of EC80 control−mean RLU of vehicle control)). The activity for representative examples of the invention is shown in the following table, wherein A: IC50≤500 nM; B: 500 nM<IC50≤2 μM; C: […]≤10 μM; D: IC50>[…].
Target sequence in this assay (P08069 31-1367, species assumed): as the sequence (P08069 31-1367) above

| SMILES | IC50 (IGF-1R [1]) | IC50 (IGF-1R [2]) |
| --- | --- | --- |
| COc1cc(Nc2nccc(Nc3cnc4ccc(Cl)cc4c3)n2)ccc1O[C@H]1C[C@H](N(C)C)C1 [Compound 195, 4-(6-chloro-3-quinolylamino)-2-{3-methoxy-4-[(1r,3r)-3-(dimethylamino)cyclobutoxy]phenylamino}pyrimidine] | ≤ 500 nM | ≤ 500 nM |
| COc1cc(Nc2nccc(Nc3cnc4ccc(Cl)cc4c3)n2)ccc1OCCCN1CCCCC1 [Compound 196, 4-(6-chloro-3-quinolylamino)-2-[3-methoxy-4-(3-piperidinopropoxy)phenylamino]pyrimidine] | ≤ 500 nM | ≤ 500 nM |
| COc1cc(Nc2nccc(Nc3cnc4c(c3)OCCO4)n2)ccc1O[C@H]1C[C@@H](N(C)C)C1 [Compound 200, 4-(2,3-dihydro-1,4-dioxa-5-aza-7-naphthylamino)-2-{3-methoxy-4-[(1s,3s)-3-(dimethylamino)cyclobutoxy]phenylamino}pyrimidine] | ≤ 500 nM | ≤ 500 nM |
| COc1cc(Nc2nccc(Nc3cnc4ccccc4c3)n2)ccc1O[C@H]1C[C@@H](N(C)C)C1 [Compound 204, 2-{3-methoxy-4-[(1s,3s)-3-(dimethylamino)cyclobutoxy]phenylamino}-4-(3-quinolylamino)pyrimidine] | ≤ 500 nM | ≤ 500 nM |
| COc1cc(C2CCN(CC#N)CC2)ncc1Nc1nccc(Nc2cc3cccc(F)c3[nH]c2=O)n1 [Compound 211, (4-{5-[4-(8-fluoro-2-oxo-1,2-dihydro-3-quinolylamino)-2-pyrimidinylamino]-4-methoxy-2-pyridyl}-1-piperidyl)acetonitrile] | ≤ 500 nM | ≤ 500 nM |
| COc1nc(C2CCN(CC#N)CC2)ccc1Nc1nccc(Nc2cc3cccc(F)c3[nH]c2=O)n1 [Compound 212, (4-{5-[4-(8-fluoro-2-oxo-1,2-dihydro-3-quinolylamino)-2-pyrimidinylamino]-6-methoxy-2-pyridyl}-1-piperidyl)acetonitrile] | ≤ 500 nM | 500 to 2000 nM |
| COc1cc(C2CCN(CC#N)CC2)ccc1Nc1nccc(Nc2cc3cccc(F)c3[nH]c2=O)n1 [Compound 213, (4-{4-[4-(8-fluoro-2-oxo-1,2-dihydro-3-quinolylamino)-2-pyrimidinylamino]-3-methoxyphenyl}-1-piperidyl)acetonitrile] | ≤ 500 nM | ≤ 500 nM |
| COc1cc(C2CCOCC2)ncc1Nc1nccc(Nc2cc3cccc(F)c3[nH]c2=O)n1 [Compound 214, 8-fluoro-3-{2-[4-methoxy-6-(tetrahydro-2H-pyran-4-yl)-3-pyridylamino]-4-pyrimidinylamino}-1,2-dihydro-2-quinolinone] | ≤ 500 nM | ≤ 500 nM |
| COc1cc([C@H]2CC[C@](C)(O)CC2)ccc1Nc1nccc(Nc2cc3cccc(F)c3[nH]c2=O)n1 [Compound 215, 8-fluoro-3-(2-{2-methoxy-4-[(1s,4s)-4-hydroxy-4-methylcyclohexyl]phenylamino}-4-pyrimidinylamino)-1,2-dihydro-2-quinolinone] | ≤ 500 nM | ≤ 500 nM |
| COc1cc([C@H]2CC[C@@](C)(O)CC2)ccc1Nc1nccc(Nc2cc3cccc(F)c3[nH]c2=O)n1 [Compound 216, 8-fluoro-3-(2-{2-methoxy-4-[(1r,4r)-4-hydroxy-4-methylcyclohexyl]phenylamino}-4-pyrimidinylamino)-1,2-dihydro-2-quinolinone] | ≤ 500 nM | ≤ 500 nM |
| COc1cc(N2CCN(CC(F)F)CC2)ncc1Nc1nccc(Nc2cc3cccc(F)c3[nH]c2=O)n1 [Compound 217, 3-(2-{6-[4-(2,2-difluoroethyl)-1-piperazinyl]-4-methoxy-3-pyridylamino}-4-pyrimidinylamino)-8-fluoro-1,2-dihydro-2-quinolinone] | 500 to 2000 nM | > 10000 nM |
| COc1cc(N2CCNC(C(F)F)C2)ncc1Nc1nccc(Nc2cc3cccc(F)c3[nH]c2=O)n1 (stereo not drawn) [Compound 218, 3-(2-{6-[3-(difluoromethyl)-1-piperazinyl]-4-methoxy-3-pyridylamino}-4-pyrimidinylamino)-8-fluoro-1,2-dihydro-2-quinolinone] | ≤ 500 nM | 500 to 2000 nM |
| COc1cc(Nc2nccc(Nc3cc4cccc(F)c4[nH]c3=O)n2)ccc1C1CCOCC1 [Compound 219, 8-fluoro-3-{2-[3-methoxy-4-(tetrahydro-2H-pyran-4-yl)phenylamino]-4-pyrimidinylamino}-1,2-dihydro-2-quinolinone] | ≤ 500 nM | > 10000 nM |
| COc1cc(C2CCOCC2)ccc1Nc1nccc(Nc2cc3cccc(F)c3[nH]c2=O)n1 [Compound 220, 8-fluoro-3-{2-[2-methoxy-4-(tetrahydro-2H-pyran-4-yl)phenylamino]-4-pyrimidinylamino}-1,2-dihydro-2-quinolinone] | ≤ 500 nM | 500 to 2000 nM |
| COc1cc(N2CCNC3(CC3)C2)ncc1Nc1nccc(Nc2cc3cccc(F)c3[nH]c2=O)n1 [Compound 221, 3-(2-{6-(4,7-diaza-7-spiro[2.5]octyl)-4-methoxy-3-pyridylamino}-4-pyrimidinylamino)-8-fluoro-1,2-dihydro-2-quinolinone] | ≤ 500 nM | 500 to 2000 nM |
| COc1cc(Nc2nccc(Nc3cc4cccc(F)c4[nH]c3=O)n2)cnc1C1CCNCC1 [Compound 223, 8-fluoro-3-{2-[5-methoxy-6-(4-piperidyl)-3-pyridylamino]-4-pyrimidinylamino}-1,2-dihydro-2-quinolinone] | ≤ 500 nM | 500 to 2000 nM |
| COc1nc(C2CCOCC2)ccc1Nc1nccc(Nc2cc3cccc(F)c3[nH]c2=O)n1 [Compound 224, 8-fluoro-3-{2-[2-methoxy-6-(tetrahydro-2H-pyran-4-yl)-3-pyridylamino]-4-pyrimidinylamino}-1,2-dihydro-2-quinolinone] | ≤ 500 nM | 500 to 2000 nM |
| COc1cc(Nc2nccc(Nc3cnc4c(F)c(F)ccc4c3)n2)cnc1O[C@H]1C[C@@H](N(C)C)C1 [Compound 291, 4-(7,8-difluoro-3-quinolylamino)-2-{5-methoxy-6-[(1s,3s)-3-(dimethylamino)cyclobutoxy]-3-pyridylamino}pyrimidine] | ≤ 500 nM | 500 to 2000 nM |
| COc1cc(Nc2nccc(Nc3cnc4c(c3)OCCO4)n2)ccc1O[C@H]1C[C@H](N(C)C)C1 [Compound 357, 4-(2,3-dihydro-1,4-dioxa-5-aza-7-naphthylamino)-2-{3-methoxy-4-[(1r,3r)-3-(dimethylamino)cyclobutoxy]phenylamino}pyrimidine] | ≤ 500 nM | ≤ 500 nM |
| COc1cc(N2CCN(C)CC2)ccc1Nc1nccc(Nc2cnc3ccc(Br)cc3c2)n1 [Compound 466, 4-(6-bromo-3-quinolylamino)-2-[2-methoxy-4-(4-methyl-1-piperazinyl)phenylamino] pyrimidine] | ≤ 500 nM | 500 to 2000 nM |
| COc1cc(N2CCNC3(CC3)C2)ncc1Nc1nccc(Nc2cnc3ccc(Cl)cc3c2)n1 [Compound 496, 4-(6-chloro-3-quinolylamino)-2-{6-(4,7-diaza-7-spiro[2.5]octyl)-4-methoxy-3-pyridylamino}pyrimidine] | ≤ 500 nM | 500 to 2000 nM |
| CN(C)CC1COc2cc(Nc3nccc(Nc4cnc5ccc(C(F)F)cc5c4)n3)ccc2O1 (stereo not drawn) [Compound 497, 4-[6-(difluoromethyl)-3-quinolylamino]-2-{2-[(dimethylamino)methyl]-2,3-dihydro-1,4-benzodioxin-6-ylamino}pyrimidine] | ≤ 500 nM | ≤ 500 nM |
| CN(C)CC(=O)N1CCc2cc(Nc3nccc(Nc4cnc5cc(F)c(F)cc5c4)n3)cnc21 [Compound 498, 1-{5-[4-(6,7-difluoro-3-quinolylamino)-2-pyrimidinylamino]-1,7-diaza-1-indanyl}-2-(dimethylamino)-1-ethanone] | 500 to 2000 nM | 500 to 2000 nM |
| CN(C)CC1COc2cc(Nc3nccc(Nc4cnc5cc(F)c(F)cc5c4)n3)cnc2O1 (stereo not drawn) [Compound 499, 4-(6,7-difluoro-3-quinolylamino)-2-{3-[(dimethylamino)methyl]-2,3-dihydro-1,4-dioxa-5-aza-7-naphthylamino}pyrimidine] | 500 to 2000 nM | 500 to 2000 nM |
| CN(C)CC1COc2ncc(Nc3nccc(Nc4cnc5ccc(Cl)cc5c4)n3)cc2O1 (stereo not drawn) [Compound 500, 4-(6-chloro-3-quinolylamino)-2-{2-[(dimethylamino)methyl]-2,3-dihydro-1,4-dioxa-5-aza-7-naphthylamino}pyrimidine] | 2000 to 10000 nM | 500 to 2000 nM |
| c1ccc2ncc(Nc3ccnc(Nc4ccc5c(ccn5CC5CCOCC5)c4)n3)cc2c1 [Compound 501, 4-(3-quinolylamino)-2-{1-[(tetrahydro-2H-pyran-4-yl)methyl]-5-indolylamino}pyrimidine] | 500 to 2000 nM | 500 to 2000 nM |
| c1ccc2ncc(Nc3ccnc(Nc4ccc5ccn(CC6CCCC6)c5c4)n3)cc2c1 [Compound 502, 2-[1-(cyclopentylmethyl)-6-indolylamino]-4-(3-quinolylamino)pyrimidine] | ≤ 500 nM | ≤ 500 nM |
